# Literature values as cited in patent US7732483B2, “DNA-PK inhibitors” (Kudos Pharmaceuticals Limited, priority 2004, dated 2010).
# System: cells
# Conditions: Rosenzweig et al. 1999
smiles,measurement,value
O=c1cc(N2CCOCC2)oc2c(-c3ccccc3)cccc12 [LY294002],sensitisation of cells to the effects of IR,weakly sensitise cells to the effects of IR
